Source: ChEMBL document CHEMBL3390836, “Mannich- and LedererManasse-based analogues of the natural product S-(+)-curcuphenol as cancer proliferation and migration inhibitors” (Medchemcomm, 2012)

Columns and labels:
Format in all cases: functional
[1] = test system: NCI-H23; assay: Cytotoxicity against human NCI-H23 cells assessed as cell growth at 10^-4 M after 48 hrs by SRB assay relative to control; conditions: NCI-H23, 48 h, read-out: Activity
[2] = Cytotoxicity against human HCT116 cells assessed as cell growth at 10^-4 M after 48 hrs by SRB assay relative to control; conditions: HCT-116, 48 h, read-out: Activity
[3] = test system: HT-29; assay: Cytotoxicity against human HT-29 cells assessed as cell growth at 10^-4 M after 48 hrs by SRB assay relative to control; conditions: HT-29, 48 h, read-out: Activity
[4] = test system: SF-268; assay: Cytotoxicity against human SF268 cells assessed as cell growth at 10^-4 M after 48 hrs by SRB assay relative to control; conditions: SF-268, 48 h, read-out: Activity
[5] = test system: Malme-3M; assay: Cytotoxicity against human MALME-3M cells after 48 hrs by SRB assay; conditions: for CC50: read-out: LC50 (the source's name)
[6] = test system: RXF 393; assay: Cytotoxicity against human RXF393 cells after 48 hrs by SRB assay; conditions: RXF 393, 48 h
[7] = test system: TK-10; assay: Cytotoxicity against human TK10 cells after 48 hrs by SRB assay; conditions: TK-10, 48 h
[8] = test system: SNB-75; assay: Cytotoxicity against human SNB75 cells assessed as cell growth at 10^-4 M after 48 hrs by SRB assay relative to control; conditions: SNB-75, 48 h, read-out: Activity
[9] = test system: MDA-MB-435; assay: Cytotoxicity against human MDA-MB-435 cells assessed as cell growth at 10^-4 M after 48 hrs by SRB assay relative to control; conditions: MDA-MB-435, 48 h, read-out: Activity
[10] = test system: KM12; assay: Cytotoxicity against human KM12 cells assessed as cell growth at 10^-8 M after 48 hrs by SRB assay relative to control; conditions: KM12, 48 h, read-out: Activity
[11] = test system: SNB-75; assay: Cytotoxicity against human SNB75 cells assessed as cell growth at 10^-8 M after 48 hrs by SRB assay relative to control; conditions: SNB-75, 48 h, read-out: Activity
[12] = test system: RXF 393; assay: Cytotoxicity against human RXF393 cells assessed as cell growth at 10^-4 M after 48 hrs by SRB assay relative to control; conditions: RXF 393, 48 h, read-out: Activity
[13] = Cytotoxicity against human UO31 cells assessed as cell growth at 10^-4 M after 48 hrs by SRB assay relative to control; conditions: UO-31, 48 h, read-out: Activity
[14] = Cytotoxicity against human PC3 cells assessed as cell growth at 10^-4 M after 48 hrs by SRB assay relative to control; conditions: PC-3, 48 h, read-out: Activity
[15] = test system: SK-MEL-5; assay: Cytotoxicity against human SK-MEL-5 cells assessed as cell growth at 10^-8 M after 48 hrs by SRB assay relative to control; conditions: SK-MEL-5, 48 h, read-out: Activity
[16] = Cytotoxicity against human OVCAR4 cells assessed as cell growth at 10^-8 M after 48 hrs by SRB assay relative to control; conditions: OVCAR-4, 48 h, read-out: Activity
[17] = Cytotoxicity against human NCI-ADR-RES cells assessed as cell growth at 10^-8 M after 48 hrs by SRB assay relative to control; conditions: read-out: Activity
[18] = test system: TK-10; assay: Cytotoxicity against human TK10 cells assessed as cell growth at 10^-8 M after 48 hrs by SRB assay relative to control; conditions: TK-10, 48 h, read-out: Activity
[19] = Cytotoxicity against human PC3 cells assessed as cell growth at 10^-8 M after 48 hrs by SRB assay relative to control; conditions: PC-3, 48 h, read-out: Activity
[20] = test system: MDA-MB-468; assay: Cytotoxicity against human MDA-MB-468 cells assessed as cell growth at 10^-8 M after 48 hrs by SRB assay relative to control; conditions: MDA-MB-468, 48 h, read-out: Activity
[21] = test system: COLO 205; assay: Cytotoxicity against human COLO205 cells assessed as cell growth at 10^-7 M after 48 hrs by SRB assay relative to control; conditions: COLO 205, 48 h, read-out: Activity
[22] = test system: A549; assay: Cytotoxicity against human A549 cells after 48 hrs by SRB assay; conditions: A549, 48 h
[23] = test system: SF-268; assay: Cytotoxicity against human SF268 cells after 48 hrs by SRB assay; conditions: SF-268, 48 h; for CC50: read-out: LC50 (the source's name)
[24] = test system: SF-539; assay: Cytotoxicity against human SF539 cells after 48 hrs by SRB assay; conditions: SF-539, 48 h; for CC50: read-out: LC50 (the source's name)
[25] = test system: IGROV-1; assay: Cytotoxicity against human IGROV1 cells assessed as cell growth at 10^-7 M after 48 hrs by SRB assay relative to control; conditions: IGROV-1, 48 h, read-out: Activity
[26] = Cytotoxicity against human OVCAR4 cells assessed as cell growth at 10^-7 M after 48 hrs by SRB assay relative to control; conditions: OVCAR-4, 48 h, read-out: Activity
[27] = Cytotoxicity against human OVCAR8 cells assessed as cell growth at 10^-7 M after 48 hrs by SRB assay relative to control; conditions: OVCAR-8, 48 h, read-out: Activity
[28] = Cytotoxicity against human NCI-ADR-RES cells assessed as cell growth at 10^-7 M after 48 hrs by SRB assay relative to control; conditions: read-out: Activity
[29] = test system: ACHN; assay: Cytotoxicity against human ACHN cells assessed as cell growth at 10^-7 M after 48 hrs by SRB assay relative to control; conditions: read-out: Activity
[30] = test system: HL-60(TB); assay: Cytotoxicity against human HL-60(TB) cells assessed as cell growth at 10^-6 M after 48 hrs by SRB assay relative to control; conditions: HL-60, 48 h, read-out: Activity
[31] = test system: SW-620; assay: Cytotoxicity against human SW620 cells assessed as cell growth at 10^-6 M after 48 hrs by SRB assay relative to control; conditions: SW-620, 48 h, read-out: Activity
[32] = test system: SF-295; assay: Cytotoxicity against human SF295 cells assessed as cell growth at 10^-6 M after 48 hrs by SRB assay relative to control; conditions: SF-295, 48 h, read-out: Activity
[33] = test system: U-251; assay: Cytotoxicity against human U251 cells assessed as cell growth at 10^-6 M after 48 hrs by SRB assay relative to control; conditions: U-251, 48 h, read-out: Activity
[34] = test system: SK-MEL-5; assay: Cytotoxicity against human SK-MEL-5 cells assessed as cell growth at 10^-6 M after 48 hrs by SRB assay relative to control; conditions: SK-MEL-5, 48 h, read-out: Activity
[35] = test system: A498; assay: Cytotoxicity against human A498 cells assessed as cell growth at 10^-6 M after 48 hrs by SRB assay relative to control; conditions: A498, 48 h, read-out: Activity
[36] = Cytotoxicity against human Hs 578T cells assessed as cell growth at 10^-6 M after 48 hrs by SRB assay relative to control; conditions: read-out: Activity

SMILES: CC(C)=CCC[C@H](C)c1ccc(C)c2c1OCN(CC1CCNCC1)C2
- growth at 100 µM [1]: -71%
- growth at 100 µM [2]: -80%
- growth at 100 µM [3]: -66%
- growth at 100 µM [4]: -79%
- GI50 [5]: 17.7 µM
- TGI [5]: 35.3 µM
- CC50 [5]: 70.2 µM
- GI50 [6]: 9.2 µM
- LC50 (concentration killing 50% of cells) [6]: 88.3 µM
- TGI [6]: 21.7 µM
- GI50 [7]: 14.4 µM
- LC50 [7]: 59.5 µM
- TGI [7]: 29.3 µM
- growth at 100 µM [8]: -99%
- growth at 100 µM [9]: -83%
- growth at 0.01 µM [10]: 99%
- growth at 0.01 µM [11]: 92%
- growth at 100 µM [12]: -93%
- growth at 100 µM [13]: -86%
- growth at 100 µM [14]: -46%
- growth at 0.01 µM [15]: 99%
- growth at 0.01 µM [16]: 102%
- growth at 0.01 µM [17]: 104%
- growth at 0.01 µM [18]: 118%
- growth at 0.01 µM [19]: 102%
- growth at 0.01 µM [20]: 94%
- growth at 0.1 µM [21]: 108%
- GI50 [22]: 13 µM
- LC50 [22]: 59.7 µM
- TGI [22]: 27.8 µM
- GI50 [23]: 16.6 µM
- TGI [23]: 33.3 µM
- CC50 [23]: 66.7 µM
- GI50 [24]: 13.7 µM
- TGI [24]: 27.5 µM
- CC50 [24]: 55.3 µM
- growth at 0.1 µM [25]: 107%
- growth at 0.1 µM [26]: 102%
- growth at 0.1 µM [27]: 101%
- growth at 0.1 µM [28]: 98%
- growth at 0.1 µM [29]: 105%
- growth at 1 µM [30]: 82%
- growth at 1 µM [31]: 103%
- growth at 1 µM [32]: 87%
- growth at 1 µM [33]: 100%
- growth at 1 µM [34]: 96%
- growth at 1 µM [35]: 102%
- growth at 1 µM [36]: 104%

SMILES: CC(C)=CCC[C@H](C)c1ccc(C)c(CNCC2CCNCC2)c1O
- growth at 100 µM [1]: 54%
- growth at 100 µM [2]: -39%
- growth at 100 µM [3]: -66%
- growth at 100 µM [4]: 14%
- GI50 [5]: 4.5 µM
- TGI [5]: 9.68 µM
- CC50 [5]: 20.8 µM
- GI50 [6]: 3.7 µM
- LC50 (concentration killing 50% of cells) [6]: > 25 µM
- TGI [6]: 13.4 µM
- GI50 [7]: 0.0551 µM
- LC50 [7]: > 25 µM
- TGI [7]: 17.8 µM
- growth at 100 µM [8]: -32%
- growth at 100 µM [9]: -66%
- growth at 0.01 µM [10]: 97%
- growth at 0.01 µM [11]: 90%
- growth at 100 µM [12]: -24%
- growth at 100 µM [13]: -29%
- growth at 100 µM [14]: 6%
- growth at 0.01 µM [15]: 93%
- growth at 0.01 µM [16]: 100%
- growth at 0.01 µM [17]: 100%
- growth at 0.01 µM [18]: 92%
- growth at 0.01 µM [19]: 97%
- growth at 0.01 µM [20]: 95%
- growth at 0.1 µM [21]: 101%
- GI50 [22]: 7.27 µM
- LC50 [22]: > 25 µM
- TGI [22]: 24.9 µM
- GI50 [23]: 7.12 µM
- TGI [23]: > 25 µM
- CC50 [23]: > 25 µM
- GI50 [24]: 4.07 µM
- TGI [24]: 8.32 µM
- CC50 [24]: 17 µM
- growth at 0.1 µM [25]: 97%
- growth at 0.1 µM [26]: 103%
- growth at 0.1 µM [27]: 104%
- growth at 0.1 µM [28]: 100%
- growth at 0.1 µM [29]: 94%
- growth at 1 µM [30]: 88%
- growth at 1 µM [31]: 99%
- growth at 1 µM [32]: 86%
- growth at 1 µM [33]: 94%
- growth at 1 µM [34]: 93%
- growth at 1 µM [35]: 79%
- growth at 1 µM [36]: 97%
